Marks after values point to notes of the source that are not given here.
Tests used:
[1] = test system: human non-small-cell lung cancer cell line A549; experiment: MTT cell growth inhibition, A549; format: cell-based; details: Homo sapiens; A549, MTT assay, 72 h; read-out: IC50, growth of tumor cell line
Excerpt: (§3) Experimental method: Cell lines (human non-small-cell lung cancer cell line A549, human colon cancer cell line LOVO, human nasopharyngeal carcinoma cell line CNE-2, human liver cancer cell line HepG2, human cervical carcinoma cell line Hela, human breast cancer cell lines MCF-7 and MDA-MB-231, human gastric carcinoma cell line NCI-N87, human prostatic cancer cell lines PC-3 and DU145, human leukemia cell line K562, human melanoma cell line A375, human neuroblastoma cell line SH-SY5H, human promyelocytic leukemia cell line HL-60, 5-FU-resistant human hepatocellular carcinoma cell line BEL-7402/5-Fu, doxorubicin-resistant hepatocellular carcinoma cell line HepG2/ADM, doxorubicin-resistant human breast cancer cell lines MCF-7/ADR) at logarithmic phase were resuspended in RPMI 1640 medium (containing 10% fetal bovine serum, 100 U/mL penicillin-streptomycin). Then, 100 μL of cells (cell concentration was 5×10^5/mL) were seeded into 96 wells plate. After 24 h incubation at 37° C. with 5% CO2, tested compounds were added (the control group without compound) for an additional 72 h incubation. After that, 30 μL of MTT [3-(4,5-Dimethylthiazol-2-yl)-2,5-diphenyltetrazolium bromide] solution (5 mg/mL) was added into each well and incubated for another 4 h at 37° C. and then the formazan crystals were solubilized with 100 μL DMSO. Finally, absorbance of each well was determined at 570 nm by a microplate reader (Thermo).
(§4) The concentration required to inhibit cell growth by 50% (IC50) was calculated from survival curves.

[2] = test system: human colon cancer cell line LOVO; experiment: MTT cell growth inhibition, LOVO; format: cell-based; details: Homo sapiens; LOVO (FAPα positive), MTT assay, 72 h; read-out: IC50, growth of tumor cell line
[3] = test system: human nasopharyngeal carcinoma cell line CNE-2; experiment: MTT cell growth inhibition, CNE-2; format: cell-based; details: Homo sapiens; CNE-2, MTT assay, 72 h; read-out: IC50, growth of tumor cell line
Excerpt: as §3, §4

[4] = test system: human liver cancer cell line HepG2; experiment: MTT cell growth inhibition, HepG2; format: cell-based; details: Homo sapiens; HepG2, MTT assay, 72 h; read-out: IC50, growth of tumor cell line
[5] = test system: human cervical carcinoma cell line Hela; experiment: MTT cell growth inhibition, Hela; format: cell-based; details: Homo sapiens, MTT assay, 72 h, read-out: IC50, growth of tumor cell line
Excerpt: as §3, §4

[6] = test system: human breast cancer cell line MCF-7; experiment: MTT cell growth inhibition, MCF-7; format: cell-based; details: Homo sapiens, MCF7; MCF-7, MTT assay, 72 h; read-out: IC50, growth of tumor cell line
Excerpt: as §3, §4

[7] = test system: human breast cancer cell line MDA-MB-231; experiment: MTT cell growth inhibition, MDA-MB-231; format: cell-based; details: Homo sapiens; MDA-MB-231, MTT assay, 72 h; read-out: IC50, growth of tumor cell line
[8] = test system: human gastric carcinoma cell line NCI-N87; experiment: MTT cell growth inhibition, NCI-N87; format: cell-based; details: Homo sapiens; NCI-N87, MTT assay, 72 h; read-out: IC50, growth of tumor cell line
Excerpt: as §3, §4

[9] = test system: human prostatic cancer cell line PC-3; experiment: MTT cell growth inhibition, PC-3; format: cell-based; details: Homo sapiens; PC-3, MTT assay, 72 h; read-out: IC50, growth of tumor cell line
Excerpt: as §3, §4

[10] = test system: human prostatic cancer cell line DU145; experiment: MTT cell growth inhibition, DU-145; format: cell-based; details: Homo sapiens; DU-145, MTT assay, 72 h; read-out: IC50, growth of tumor cell line
[11] = test system: human leukemia cell line K562; experiment: MTT cell growth inhibition, K562; format: cell-based; details: Homo sapiens; K562, MTT assay, 72 h; read-out: IC50, growth of tumor cell line
Excerpt: as §3, §4

[12] = test system: human melanoma cell line A375; experiment: MTT cell growth inhibition, A375; format: cell-based; details: Homo sapiens, A-375; A375, MTT assay, 72 h; read-out: IC50, growth of tumor cell line
[13] = test system: human neuroblastoma cell line SH-SY5H; experiment: MTT cell growth inhibition, SH-SY5H; format: cell-based; details: Homo sapiens, Neuroblastoma cell, MTT assay, 72 h, read-out: IC50, growth of tumor cell line
Excerpt: as §3, §4

[14] = test system: human promyelocytic leukemia cell line HL-60; experiment: MTT cell growth inhibition, HL-60; format: cell-based; details: Homo sapiens; HL-60, MTT assay, 72 h; read-out: IC50, growth of tumor cell line
[15] = test system: 5-FU-resistant human hepatocellular carcinoma cell line BEL-7402/5-Fu; experiment: MTT cell growth inhibition, BEL-7402/5-Fu; format: cell-based; details: Homo sapiens, Bel7402/5-FU, MTT assay, 72 h, read-out: IC50, growth of tumor cell line
Excerpt: as §3, §4

[16] = test system: doxorubicin-resistant hepatocellular carcinoma cell line HepG2/ADM; experiment: MTT cell growth inhibition, HepG2/ADM; format: cell-based, human; details: Homo sapiens, MTT assay, 72 h, read-out: IC50, growth of tumor cell line
Excerpt: as §3, §4

[17] = test system: doxorubicin-resistant human breast cancer cell lines MCF-7/ADR; experiment: MTT cell growth inhibition, MCF-7/ADR; format: cell-based; details: Homo sapiens, NCI/ADR-RES, MTT assay, 72 h, read-out: IC50, growth of tumor cell line
Excerpt: as §3, §4

MDA-MB-231 xenografts = MDA-MB-231 xenografts in nude mice; format: in vivo, BALB/nu/nu mice; details: MDA-MB-231 xenograft nude mice; for Anti-tumor rate (%) / Body weight (g) Post-dose / Tumor weight: 1 mg/kg i.p. every two days, 8 administrations; for Body weight (g) Pre-dose: before dosing
Procedure: (§1) Experimental method: The MDA-MB-231 cells at logarithmic phase were digested and washed twice with PBS. Then, 100 μL cells (1×10^7) were inoculated subcutaneously on the backs of female BALB/nu/nu mice. After tumors grew to 70˜100 mm^3, the mice were divided randomly into saline group (control group), vinca alkaloids groups (VLB, CCRB, CCFN, CCXJ) and vinca alkaloid derivatives groups (JJ-CCJ, BX-CCJ, JJ-CCRB, BX-CCRB, JJ-CCFN, BX-CCFN, JJ-CCXJ and BX-CCXJ), with six mice per group. 1 mg/kg drugs were injected intraperitoneally every two days, meanwhile body weight and tumor sizes were measured. Experiment was ended after 8 times of drug administration, then tumor and organs were stripped. Tumor volumes were measured using the following formula: V=½(ab^2), whereas a refers to the longest diameter and b is the shortest diameter.

HepG2 xenografts = HepG2 xenografts in nude mice; format: in vivo; details: HepG2 xenograft nude mice; for Anti-tumor rate (%) / Body weight (g) Post-dose / Tumor weight: 1 mg/kg; for Body weight (g) Pre-dose: before dosing
Procedure: as §1
(§2) Tumor xenograft models of HepG2, LOVO, K562 and HL-60 cell lines were performed as the method described above.

LOVO xenografts = LOVO xenografts in nude mice; format: in vivo; details: LOVO xenograft nude mice; for Anti-tumor rate (%) / Body weight (g) Post-dose / Tumor weight: 1 mg/kg; for Body weight (g) Pre-dose: before dosing
Procedure: as §1, §2

K562 xenografts = K562 xenografts in nude mice; format: in vivo; details: K562 xenograft nude mice; for Anti-tumor rate (%) / Body weight (g) Post-dose / Tumor weight: 1 mg/kg; for Body weight (g) Pre-dose: before dosing
Procedure: as §1, §2

HL-60 xenografts = HL-60 xenografts in nude mice; format: in vivo; details: HL-60 xenograft nude mice; for Anti-tumor rate (%) / Body weight (g) Post-dose / Tumor weight: 1 mg/kg; for Body weight (g) Pre-dose: before dosing
Procedure: as §1, §2

Row | Compound | IC50 [1] | IC50 [2] | IC50 [3] | IC50 [4] | IC50 [5] | IC50 [6] | IC50 [7] | IC50 [8] | IC50 [9] | IC50 [10] | IC50 [11] | IC50 [12] | IC50 [13] | IC50 [14] | IC50 [15] | IC50 [16] | IC50 [17] | Anti-tumor rate (%) (MDA-MB-231 xenografts) | Body weight (g) Post-dose (MDA-MB-231 xenografts) | Tumor weight (MDA-MB-231 xenografts) | also measured
1 | CC[C@]12C=CCN3CC[C@@]4(c5cc([C@@]6(C(=O)OC)C[C@@H]7C[C@@H](C(C)(F)F)CN(Cc8c6[nH]c6ccccc86)C7)c(OC)cc5N(C)[C@H]4[C@@](O)(C(=O)NN)[C@@H]1O)[C@@H]32 [JJ-CCFN, hydrazinolyzed vinflunine] | 206 ± 6.79 nM | 313 ± 7.64 nM | 198 ± 7.71 nM | 103 ± 6.37 nM | 132 ± 6.67 nM | 304 ± 9.44 nM | 333 ± 12.5 nM | 133 ± 6.7 nM | 98.3 ± 3.19 nM | 90.8 ± 5.45 nM | 55.9 ± 7.59 nM | 132 ± 9.51 nM | 159 ± 20.4 nM | 198 ± 19.5 nM | 166 ± 5.77 nM | 277 ± 9.67 nM | 713 ± 25.6 nM | 75.10** % | 16.3 ± 0.7 g | 0.65 ± 0.13 g | Body weight (g) Pre-dose (MDA-MB-231 xenografts): 19.7 ± 2.1 g; Anti-tumor rate (%) (HepG2 xenografts): 75.69** %; Body weight (g) Post-dose (HepG2 xenografts): 16.5 ± 0.4 g; Tumor weight (HepG2 xenografts): 0.62 ± 0.19 g; Body weight (g) Pre-dose (HepG2 xenografts): 22.3 ± 1.7 g; Anti-tumor rate (%) (LOVO xenografts): 76.31** %; Body weight (g) Post-dose (LOVO xenografts): 18.9 ± 2.1 g; Tumor weight (LOVO xenografts): 0.68 ± 0.13 g; Body weight (g) Pre-dose (LOVO xenografts): 22.7 ± 1.5 g; Anti-tumor rate (%) (K562 xenografts): 57.74** %; Body weight (g) Post-dose (K562 xenografts): 17.4 ± 0.9 g; Tumor weight (K562 xenografts): 0.71 ± 0.21 g; Body weight (g) Pre-dose (K562 xenografts): 21.5 ± 2.1 g; Anti-tumor rate (%) (HL-60 xenografts): 60.10** %; Body weight (g) Post-dose (HL-60 xenografts): 17.3 ± 0.1 g; Tumor weight (HL-60 xenografts): 0.83 ± 0.13 g; Body weight (g) Pre-dose (HL-60 xenografts): 19.2 ± 1.9 g
2 | CC[C@]12C=CCN3CC[C@@]4(c5cc([C@@]6(C(=O)OC)C[C@@H]7C[C@@H](C(C)(F)F)CN(Cc8c6[nH]c6ccccc86)C7)c(OC)cc5N(C)[C@H]4[C@@](O)(C(=O)OC)[C@@H]1OC(C)=O)[C@@H]32 [Vinflunine, reference compound] | 137 ± 4.1 nM | 146 ± 7.21 nM | 67.4 ± 3.42 nM | 32.1 ± 2.17 nM | 56.7 ± 4.47 nM | 77 ± 2.74 nM | 61.3 ± 7.44 nM | 57.5 ± 3.95 nM | 31.1 ± 5.34 nM | 22.3 ± 1.67 nM | 19.3 ± 2.48 nM | 39.8 ± 5.29 nM | 52.4 ± 6.81 nM | 41.8 ± 6.85 nM | 45.7 ± 3.98 nM | 67.1 ± 4.39 nM | 154 ± 3.95 nM |  |  |  | 
3 | CC[C@]1(O)C[C@@H]2CN(CCc3c([nH]c4ccccc34)[C@@](C(=O)OC)(c3cc4c(cc3OC)N[C@H]3[C@@](O)(C(=O)NN)[C@H](O)[C@]5(CC)C=CCN6CC[C@]43[C@@H]65)C2)C1 [JJ-CCXJ, hydrazinolyzed vincristine] | 4.34 ± 0.42 nM | 24.3 ± 1.09 nM | 8.37 ± 2.7 nM | 12.3 ± 1.96 nM | 23.6 ± 2.97 nM | 26.9 ± 4.38 nM | 7.37 ± 1.18 nM | 10.7 ± 1.78 nM | 27.1 ± 2.18 nM | 18.4 ± 3.67 nM | 12.1 ± 1.67 nM | 15.6 ± 2.38 nM | 18.7 ± 2.54 nM | 32.5 ± 3.51 nM | 106 ± 5.87 nM | 44.9 ± 3.67 nM | 63.2 ± 7.74 nM | 75.86** % | 17.3 ± 1.2 g | 0.63 ± 0.15 g | Body weight (g) Pre-dose (MDA-MB-231 xenografts): 21.1 ± 2.5 g; Anti-tumor rate (%) (HepG2 xenografts): 79.21** %; Body weight (g) Post-dose (HepG2 xenografts): 17.8 ± 0.9 g; Tumor weight (HepG2 xenografts): 0.53 ± 0.12 g; Body weight (g) Pre-dose (HepG2 xenografts): 22.0 ± 2.1 g; Anti-tumor rate (%) (LOVO xenografts): 73.52** %; Body weight (g) Post-dose (LOVO xenografts): 17.5 ± 1.3 g; Tumor weight (LOVO xenografts): 0.76 ± 0.16 g; Body weight (g) Pre-dose (LOVO xenografts): 22.9 ± 2.3 g; Anti-tumor rate (%) (K562 xenografts): 60.12** %; Body weight (g) Post-dose (K562 xenografts): 17.1 ± 0.3 g; Tumor weight (K562 xenografts): 0.67 ± 0.22 g; Body weight (g) Pre-dose (K562 xenografts): 22.4 ± 1.7 g; Anti-tumor rate (%) (HL-60 xenografts): 59.62** %; Body weight (g) Post-dose (HL-60 xenografts): 16.3 ± 0.6 g; Tumor weight (HL-60 xenografts): 0.84 ± 0.13 g; Body weight (g) Pre-dose (HL-60 xenografts): 19.7 ± 1.5 g

Source: patent publication US10377774B2 (JINAN UNIVERSITY, priority 2013, dated 2019)
